From PMC9855386, “Obtaining a Monoclonal Antibody against a Novel Prometryn-Like Hapten and Characterization of Its Selectivity for Triazine Herbicides” (Biosensors, 2022)
One block for each compound: values may come before it.

System: 7D4 mAb (mouse monoclonal anti-prometryn antibody)
Assay: ic-ELISA cross-reactivity of the 7D4 mAb with triazines
Format: binding
Conditions: for IC50: ic-ELISA, analyte 1000-15.625 and 0 ng/mL; for Cross-Reactivity: relative to prometryn = 100%
Description: The ic-ELISA method was used to screen the best-performing fusion mouse sera. They were used to establish the standard curve of antibodies by detecting the supernatant of positive cells. The buffer required for ic-ELISA was the same as previously reported. The specific steps of the operation are as follows: (1) The coated antigen was added to the microplate by diluting it with the required coating solutions (CBS, pH 9.6, 0.05 mol/L). Each well contained 100 µL, which was incubated at 37 °C for three h before being washed three times with washing buffer (PBST, PBS containing 0.1% Tween-20). (2) With sample dilution buffer (PBSTG, PBST containing 0.1% gelatin), the standard prometryn sample and the antiserum/antibody from mice were diluted to the required concentration. The microplate was incubated for 30 min at 37 °C with 50 µL of diluted antiserum or antibody and standard samples of various concentrations. PBST was used three times to wash the dishes. (3) Then, 100 µL of PBSTG-diluent IgG HRP (labeled goat anti-mouse IgG with HRP) was added to each well. After 30 min at 37 °C, the plate was cleaned three times with PBST. (4) Each well was incubated for 15 min in the dark at 25 °C with 100 µL of TMB color developing solution. To stop the reaction, 50 µL of the hydrochloric acid solution was added to each well. The absorbance at OD450 nm was measured with a TECAN Infinite M200 PRO microplate reader from Männedorf, Switzerland.
The ic-ELISA method was used to determine the ideal antibody and antigen mix. The coating antigen and antibody concentration used in the experiment was 1 mg/mL. The dilution multiples of the coating were 1 × 10^3, 2 × 10^3, 4 × 10^3, and 8 × 10^3. The prometryn standard was 1000 ng/mL. The best concentration combination of antigen and antibody was selected to establish the standard curve of the antibody. Prometryn standards were diluted to 1000, 500, 250, 125, 62.5, 31.25, 15.625, 7.8125, 3.90625, and 0 ng/mL, with PBSTG for subsequent ic-ELISA experiments. The standard curve was determined by ic-ELISA. […] Each measured OD value in the curve is the average of three independent repeats. The 7D4 mAb’s inhibition rate was well linearly correlated with the prometryn concentration. […] The 7D4 mAb type was identified as IgG1 using a mouse antibody isotyping kit from Sigma®, St. Louis, MO, USA.
Eleven triazine herbicides were selected to determine their cross-reactivity with 7D4 mAb. […] The cross-reaction rate with the other seven triazines was less than 1%. The hybridoma cell line 7D4 screened in this study can specifically recognize prometryn. […] The cross-reaction rate may vary depending on the immunoassay format and the competitive hapten preparation used.

IC50: 0.051091 µg/mL
SMILES: CCNc1nc(NC(C)(C)C)nc(OC)n1 [Terbumeton]
Cross-Reactivity: 7.64%
Cross-Reactivity (listed as terbumeton): 7.64%

IC50: 0.021566 µg/mL
SMILES: CNc1nc(NC(C)C)nc(SC)n1 [Desmetryn]
Cross-Reactivity: 18.09%
Cross-Reactivity (listed as desmetryn): 18.09%

SMILES: CCNc1nc(NCC)nc(SC)n1 [Simetryn]
IC50: >1 µg/mL
Cross-Reactivity: <0.39%

SMILES: CC(C)Nc1nc(Cl)nc(NC(C)C)n1 [Propazine]
IC50: 0.398011 µg/mL
Cross-Reactivity: 0.98%

SMILES: CCNc1nc(NC(C)C)nc(SC)n1 [Ametryn]
IC50: 0.011221 µg/mL
Cross-Reactivity: 34.77%
Cross-Reactivity (listed as ametryn): 34.77%

SMILES: COc1nc(NC(C)C)nc(NC(C)C)n1 [Prometon]
IC50: >1 µg/mL
Cross-Reactivity: <0.39%

SMILES: CCNc1nc(Cl)nc(NCC)n1 [Simazine]
IC50: >1 µg/mL
Cross-Reactivity: <0.39%

SMILES: CCNc1nc(Cl)nc(NC(C)(C)C)n1 [Terbuthylazine]
IC50: >1 µg/mL
Cross-Reactivity: <0.39%

SMILES: CCNc1nc(Cl)nc(NC(C)C)n1 [Atrazine]
IC50: >1 µg/mL
Cross-Reactivity: <0.39%

SMILES: CCNc1nc(NC(C)(C)C)nc(SC)n1 [Terbutryn]
IC50: >1 µg/mL
Cross-Reactivity: <0.39%
